In patent US6632834B2, “Compositions and methods for treating conditions responsive to estrogen” (Pfizer Inc., priority 2000, dated 2003):

How the values were obtained:
[1] = system: MCF-7 cells; test: Inhibition of in vitro human breast tumor cell growth (direct cell counts), ER-positive cells; type: cell-based; conditions: MCF-7 (ER-positive), 6 days incubation
Experimental: (§1) The in vitro antiproliferative effects of (−)-cis-6-phenyl-5-[4-(2-pyrrolidin-1-yl-ethoxy)-phenyl]-5,6,7,8-tetrahydro-naphthalene-2-ol (PPTN) were tested using two types of human breast cancer cell lines: first, MCF-7 cells, which contain ER as well as progesterone receptors (PgR), and second, MDA-MB-231 cells, which lack ER and PgR, and enable the determination of an effect that is independent of the ER mechanism. The effect of PPTN on the growth of these different cell lines was determined by incubation of the cells with various compound concentrations for 6 days.
(§2) The antiproliferative effects were then determined by direct cell counts. PPTN inhibited the growth of the ER-positive cell line MCF-7.

[2] = system: MDA-MB-231 cells; test: Inhibition of in vitro human breast tumor cell growth (direct cell counts), ER-negative cells; type: cell-based; conditions: MDA-MB-231 (ER-negative), 6 days incubation
Experimental: as §1, §2

IC50 for growth inhibition [1]: 3 to 5×10^−11 M
Structure (SMILES): Oc1ccc2c(c1)CC[C@H](c1ccccc1)[C@@H]2c1ccc(OCCN2CCCC2)cc1 [PPTN, (−)-cis-6-phenyl-5-[4-(2-pyrrolidin-1-yl-ethoxy)-phenyl]-5,6,7,8-tetrahydro-naphthalene-2-ol]
inhibition of cell proliferation [2]: did not inhibit cell proliferation
